Starred links: 1 amine or outer side, 2 acyl side, 3 side chain; linkers in the order of their positions; H or OH if unused. Residues, ends and D or L forms follow the SMILES beside them. Groups on a side chain read outwards from the residue. *: point of attachment. γGlu = O=C(O)[C@H](CCC(=O)[*:2])N[*:1]; Palmitoyl = CCCCCCCCCCCCCCCC(=O)*; AEEA = NCCOCCOCC(=O)O

Broadly, the solubility is how much of the substance goes into solution per volume. Low values mean a poorly soluble substance, high ones a readily soluble substance. One may read the IC50 as the point on the concentration scale where inhibition reaches its midpoint.

A short description of series [1]: Solubility of peptides in buffer. The format is physicochemical. The following applies: pH 7.7.
The next series deals with T1, human GLP-1 receptor (Homo sapiens, UniProt P43220).
T1 construct: host or cells: HEK 293
T1 sequence (P43220 24-463): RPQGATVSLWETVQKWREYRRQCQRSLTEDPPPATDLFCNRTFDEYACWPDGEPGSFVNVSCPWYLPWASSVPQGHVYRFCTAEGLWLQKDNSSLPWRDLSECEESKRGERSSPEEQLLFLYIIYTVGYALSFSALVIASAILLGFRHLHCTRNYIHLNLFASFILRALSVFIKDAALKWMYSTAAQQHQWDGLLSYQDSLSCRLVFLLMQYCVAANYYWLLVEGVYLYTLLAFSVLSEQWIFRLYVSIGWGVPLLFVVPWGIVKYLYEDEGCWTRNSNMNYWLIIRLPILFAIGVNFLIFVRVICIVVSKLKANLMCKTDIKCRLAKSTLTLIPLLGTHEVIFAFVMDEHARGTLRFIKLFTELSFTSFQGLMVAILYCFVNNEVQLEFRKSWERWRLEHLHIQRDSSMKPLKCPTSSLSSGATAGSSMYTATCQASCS
Nature of the series: GLP-1 receptor-mediated cAMP induction, luciferase reporter gene assay (antagonism mode). It is filed as cell-based. The following applies: Table 2; HEK 293 cells, human GLP-1R, vs 0.05 nM GLP-1; read-out: Bioactivity IC50. The procedure: GLP-1 Receptor-Mediated cAMP Induction
The ability of peptides to stimulate or block cAMP induction at the GLP-1 receptor was examined by a luciferase-based reporter gene assay. Cotransfection of HEK 293 cells with the human GLP-1 receptor (Open Biosystems) and a cAMPinducible (cAMPresponsive element) luciferase gene constituted the cellular construct where receptor activation could be measured. Bioassays were performed by first serum depriving the cells for 16 h in 0.25% bovine growth serum (HyClone)-supplemented Dulbecco's modified Eagle's medium (Invitrogen) and then adding serial dilutions of the peptides over the appropriate concentration ranges in 96-well poly-D-lysine-coated plates (BD Biosciences). For antagonism assays, a constant concentration of GLP-1 (0.05 nM) was added to the assay plate after the diluted peptides. Incubation continued for 5 h at 37° C., 5% CO2 and was followed by the addition of an equivalent volume (100 μL) of LucLite luminescence substrate reagent (Perkin-Elmer). MicroBeta 1450 liquid scintillation counting (Perkin-Elmer) quantified the luminescence signal in counts per second (cps) after shaking the plate at 600 rpm for 3 min. Data was plotted using Origin software (OriginLab) and the effective concentration 50 (EC50) or inhibitory concentration 50 (IC50) was determined by sigmoidal fitting. Potency was determined by comparative analysis of relative EC50 or IC50 values. Each experiment was repeated at least three times with each sample assayed in duplicate.
(A reporter such as luciferase makes a cellular process visible.)

The subject of a further series is C57B1/6 mice. Nature of the series: Glucose tolerance test after subcutaneous GLP-1 antagonist (acute in vivo study). The conditions noted are these: s.c. antagonist, i.p. glucose 1.5 g/kg four hours later. On the procedure:
FIGS. 2A & 2B present data from a glucose tolerance test wherein mice are subcutaneously administered the GLP-1 antagonist followed four hours later by intraperitoneal administration of glucose (1.5 g glucose per kg body weight).
C57B1/6 mice were obtained from Jackson Laboratories. Mice were single- or group-housed on a 12:12 h light-dark cycle at 22° C. with free access to food and water. All studies were approved by and performed according to the guidelines of the Institutional Animal Care and Use Committee of the University of Cincinnati.
For the determination of glucose tolerance, mice were subjected to 6 h of fasting and injected intraperitoneally with glucose. Injections consisted of 1.5 g glucose per kg body weight (25% w/v D-glucose (Sigma) in 0.9% w/v saline). Tail blood glucose levels (mg dL-1) were measured using a hand-held glucometer (FreeStyle Freedom Lite) before 0 min and at 15, 30, 60, and 120 min after injection.
Mice received a subcutaneous injection of peptide (in PBS) either 1, 4, 8, 24, 48, 72, or 120 at varying doses before being challenged with an IP injection of dipeptidyl peptidase-IV-protected Ex-4 (0.65 nmol kg−1). A GTT was performed fifteen minutes after the GLP-1 injection. Tail blood glucose values were obtained as described above.

In series [1], `CCCCCCCCCCCCCCCC(=O)NCCOCCOCC(=O)NCCOCCOCC(=O)N[C@@H](CCC(=O)N[C@@H](CCC(=O)NCCCC[C@H](NC(=O)[C@H](CO)NC(=O)[C@@H]1CCCN1C(=O)[C@@H]1CCCN1C(=O)[C@@H]1CCCN1C(=O)[C@H](C)NC(=O)CNC(=O)[C@H](CO)NC(=O)[C@H](CO)NC(=O)[C@@H]1CCCN1C(=O)CNC(=O)CNC(=O)[C@H](CCCCN)NC(=O)[C@@H](NC(=O)[C@H](CC(C)C)NC(=O)[C@H](Cc1c[nH]c2ccccc12)NC(=O)[C@H](C)NC(=O)[C@@H](NC(=O)[C@H](Cc1ccccc1)NC(=O)[C@H](CCC(=O)O)NC(=O)[C@H](CCCNC(=N)N)NC(=O)[C@@H](NC(=O)[C@H](C)NC(=O)[C@H](CCC(N)=O)NC(=O)[C@H](CCC(=O)O)NC(=O)[C@H](CCC(=O)O)NC(=O)[C@H](CC(C)C)NC(=O)[C@H](Cc1ccc(O)cc1)NC(=O)[C@H](CO)NC(=O)[C@H](CO)NC(=O)[C@@H](NC(=O)[C@@H](N)CC(=O)O)C(C)C)C(C)C)[C@@H](C)CC)C(C)C)C(N)=O)C(=O)O)C(=O)O` [SEQ ID NO: 61] (H-DVSSYLEEQAVREFIAWLVKGGPSSGAPPPSK([γGlu-γGlu-AEEA-AEEA-Palmitoyl])-NH2; N-terminus assumed) returned a solubility of more than 25 mg/mL. Besides, the IC50 at human GLP-1 receptor came to 6 nM.

With `CCCCCCCCCCCCCCCC(=O)N[C@@H](CCC(=O)N[C@@H](CCC(=O)NCCOCCOCC(=O)NCCOCCOCC(=O)NCCCC[C@H](NC(=O)[C@H](CO)NC(=O)[C@@H]1CCCN1C(=O)[C@@H]1CCCN1C(=O)[C@@H]1CCCN1C(=O)[C@H](C)NC(=O)CNC(=O)[C@H](CO)NC(=O)[C@H](CO)NC(=O)[C@@H]1CCCN1C(=O)CNC(=O)CNC(=O)[C@H](CCCCN)NC(=O)[C@@H](NC(=O)[C@H](CC(C)C)NC(=O)[C@H](Cc1c[nH]c2ccccc12)NC(=O)[C@H](C)NC(=O)[C@@H](NC(=O)[C@H](Cc1ccccc1)NC(=O)[C@H](CCC(=O)O)NC(=O)[C@H](CCCNC(=N)N)NC(=O)[C@@H](NC(=O)[C@H](C)NC(=O)[C@H](CCC(N)=O)NC(=O)[C@H](CCC(=O)O)NC(=O)[C@H](CCC(=O)O)NC(=O)[C@H](CC(C)C)NC(=O)[C@H](Cc1ccc(O)cc1)NC(=O)[C@H](CO)NC(=O)[C@H](CO)NC(=O)[C@@H](NC(=O)[C@@H](N)CC(=O)O)C(C)C)C(C)C)[C@@H](C)CC)C(C)C)C(N)=O)C(=O)O)C(=O)O` [SEQ ID NO: 58] (H-DVSSYLEEQAVREFIAWLVKGGPSSGAPPPSK([AEEA-AEEA-γGlu-γGlu-Palmitoyl])-NH2; N-terminus assumed), the concentration for half-maximal inhibition (IC50) at human GLP-1 receptor is 11 nM.

The molecule `CCCCCCCCCCCCCCCC(=O)N[C@@H](CCC(=O)NCCOCCOCC(=O)NCCOCCOCC(=O)N[C@@H](CCC(=O)NCCCC[C@H](NC(=O)[C@H](CO)NC(=O)[C@@H]1CCCN1C(=O)[C@@H]1CCCN1C(=O)[C@@H]1CCCN1C(=O)[C@H](C)NC(=O)CNC(=O)[C@H](CO)NC(=O)[C@H](CO)NC(=O)[C@@H]1CCCN1C(=O)CNC(=O)CNC(=O)[C@H](CCCCN)NC(=O)[C@@H](NC(=O)[C@H](CC(C)C)NC(=O)[C@H](Cc1c[nH]c2ccccc12)NC(=O)[C@H](C)NC(=O)[C@@H](NC(=O)[C@H](Cc1ccccc1)NC(=O)[C@H](CCC(=O)O)NC(=O)[C@H](CCCNC(=N)N)NC(=O)[C@@H](NC(=O)[C@H](C)NC(=O)[C@H](CCC(N)=O)NC(=O)[C@H](CCC(=O)O)NC(=O)[C@H](CCC(=O)O)NC(=O)[C@H](CC(C)C)NC(=O)[C@H](Cc1ccc(O)cc1)NC(=O)[C@H](CO)NC(=O)[C@H](CO)NC(=O)[C@@H](NC(=O)[C@@H](N)CC(=O)O)C(C)C)C(C)C)[C@@H](C)CC)C(C)C)C(N)=O)C(=O)O)C(=O)O` [SEQ ID NO: 57] (H-DVSSYLEEQAVREFIAWLVKGGPSSGAPPPSK([γGlu-AEEA-AEEA-γGlu-Palmitoyl])-NH2; N-terminus assumed) gave a solubility in series [1] of more than 25 mg/mL. Further, at human GLP-1 receptor, the IC50 turned out to be 9 nM.

With `CCCCCCCCCCCCCCCC(=O)N[C@@H](CCC(=O)NCCOCCOCC(=O)NCCCC[C@H](NC(=O)[C@H](CO)NC(=O)[C@@H]1CCCN1C(=O)[C@@H]1CCCN1C(=O)[C@@H]1CCCN1C(=O)[C@H](C)NC(=O)CNC(=O)[C@H](CO)NC(=O)[C@H](CO)NC(=O)[C@@H]1CCCN1C(=O)CNC(=O)CNC(=O)[C@H](CCCNC(=N)N)NC(=O)[C@@H](NC(=O)[C@H](CC(C)C)NC(=O)[C@H](Cc1c[nH]c2ccccc12)NC(=O)[C@H](CCC(=O)O)NC(=O)[C@@H](NC(=O)[C@H](Cc1ccccc1)NC(=O)[C@H](CCC(=O)O)NC(=O)[C@H](CCCNC(=N)N)NC(=O)[C@@H](NC(=O)[C@H](C)NC(=O)[C@H](CCC(N)=O)NC(=O)[C@H](CCC(=O)O)NC(=O)[C@H](CCC(=O)O)NC(=O)[C@H](CC(C)C)NC(=O)[C@H](Cc1ccc(O)cc1)NC(=O)[C@H](CCCNC(=N)N)NC(=O)[C@H](CO)NC(=O)[C@@H](NC(=O)[C@@H](N)CC(=O)O)C(C)C)C(C)C)[C@@H](C)CC)C(C)C)C(=O)O)C(=O)O` [SEQ ID NO: 16] (H-DVSRYLEEQAVREFIEWLVRGGPSSGAPPPSK([AEEA-γGlu-Palmitoyl])-OH), the “GLP-1 antagonist activity in glucose tolerance test” value in the series on C57B1/6 mice (FIG. 2A) is “full antagonist”. Besides, in the series with C57B1/6 mice (FIGS. 2A & 2B), the “Potency relative to the GLP-1 antagonist Ex-9-40 in glucose tolerance test” value is “much higher potency”.

The values above are taken from patent US20240116998A1, “GLUCAGON-LIKE PEPTIDE-1 RECEPTOR ANTAGONISTS” (INDIANA UNIVERSITY RESEARCH AND TECHNOLOGY CORPORATION, priority 2021, published 2024).
